Laboratory results as given in patent US6468987B1, “Nutritional product for a person having ulcerative colitis” (Abbott Laboratories, priority 1994, dated 2002).
Marks after values point to notes of the source that are not given here.

How the values were obtained:
[1] = tested on: distal colitis induced by peptidoglycan/polysaccharide (PG/PS); assay: PG/PS-induced acute and chronic distal colitis in rats; type: in vivo, Female Lewis rats
Protocol: For these reasons, a model of acute and chronic distal colitis in rats was developed based upon a previously published method in which purified bacterial cell wall polymers (derived from Group A streptococci) are injected intramurally into the distal colon of genetically-susceptible rats. Sartor et al., “Granulomatus Entercolitis Induced by Purified Bacterial Cell Wall Fragments”, GASTROENTEROLOGY, Vol. 89, pages 587-595 (1985). This model produces an acute and chronic inflammation characterized by the infiltration of large numbers of inflammatory cells, enhanced mucosal permeability, interstitial fibrosis, and mucosal thickening as well as the extraintestinal manifestations of arthritis, hepatic and splenic granulomas. Unlike most models of colitis, the inflammation induced in this model promoting mucosal and submucosal injury rather than the injury causing the inflammation.
In Experiment 2 the objectives were: (a) to determine whether this model of colitis responds to sulfasalazine (SAZ) and (b) to assess the effects of specially formulated enteral diets on the injury and inflammation observed in the colon, liver and spleen.
Female Lewis rats (150-175 g) were maintained in a controlled temperature and light-dark cycle (12 hours:12 hours) and housed in wire-mesh bottomed cages and given water and standard laboratory rat chow ad libitum. A total of 48 rats were divided into 6 groups of 8 rats each consisting of a sham (rats receiving Diet #1 {base diet} with no peptidoglycan/polysaccharide {PG/PS} injection) control group, a chow group and 4 groups of rats placed on 4 different polymeric diets (Table 6). Rats received either chow or polymeric diets (320 kcals/kg/day or 60 mL of liquid diet/day) for 7 days preceding induction of colitis. Distal colitis was induced by a modification of the method of Sartor et al in which multiple sites (8-9) along the distal colon were injected intramurally with 60 ul/site to deliver a dose of peptidoglycan/polysaccharide (PG/PS) of 12.5 ug/g body weight. The albumin (sham) control group received the same number of injections of human serum albumin into the distal colon.
Total dietary intake and body weights of the control and liquid diet groups were recorded for each 24 hour period during the course of the 4 week experiment (1 week prior to the induction of colitis and 3 weeks following PG/PS or albumin injection).
To assess the effects of SAZ in this model, female Lewis rats were orally administered SAZ immediately following the induction of colitis. Rats were given chow ad libitum for the duration of the four week study period. Similar measurements were assessed as described below.
All rats receiving nutritional therapy or SAZ were euthanized with an overdose of pentobarbital and the distal colon and cecum were excised and opened longitudinally. The length and weight of the perfused segment were recorded and the tissue divided longitudinally into three strips for wet-to-dry ratios, histology and myeloperoxidase (MPO) determinations. Colonic MPO activity was determined in which 3,3′ 5,5′ tetramethylbenzidine was used as the electron donating substrate and hexadecyltrimethylammonium hydroxide was used as the detergent. Spleen and liver weights were recorded. Circulating levels of nitrate and nitrite were also quantified using the Griess reagent and used as indices of immune system activation (i.e. activation of the reticuloendothelial system {nitric oxide synthase}). The studies were analyzed as a completely randomized design. Treatment differences were separated using an F-protected least significant difference (LSD) method. In both studies additional chow fed control animals that were treated under laboratory conditions described above were incorporated in the statistical analysis.

[2] = tested on: active ulcerative colitis; details: dietary supplementation; cited from earlier work
[3] = SAZ orally from induction of colitis, chow fed PG/PS rats, least square means
[4] = oral SAZ vs PG/PS treated animals and sham control
[5] = oral SAZ vs chow fed group receiving PG/PS

Molecule | COLON WT [1, 3] | Liver wt [1, 3] | MPO ACTIVITY [1, 3] | Spleen wt [1, 3] | liver weight, in words [1, 4] | spleen weight, in words [1, 4] | colon weight, in words [1, 5] | increases in MPO activity, in words [1, 5] | histological inspection of the SAZ-treated tissue ([1]; oral SAZ, PG/PS colitis) | eicosanoid levels from rectal dialysate fluid [2]
O=C(O)c1cc(/N=N/c2ccc(S(=O)(=O)Nc3ccccn3)cc2)ccc1O [SAZ, sulfasalazine] | .021 ± .004^a,b g dry wt/cm | 34.0 ± 3.6^b mg/g bw | 1.40 ± 2.9^b units/cm colon | 2.92 ± 1.3^b mg/g bw | significantly lower than the PG/PS treated animals and comparable to the sham control | significantly lower than the PG/PS treated animals and comparable to the sham control | tended to reduce | significantly attenuated | inhibition of leukocyte infiltration and fibrosis | –
vitamin E | – | – | – | – | – | – | – | – | – | not to promote changes
